Results taken from patent US12441730B2, “PRMT5 inhibitors” (Merck Sharp & Dohme LLC, priority 2019, dated 2025).
pEC50: −log10 of the molar value. Read-outs that look alike come from different tables or passages of the source.

Assays:
[1] = biological target: T1, Full-length (FL)-PRMT5-MEP50 enzyme complex (Homo sapiens, UniProt O14744); experiment: PRMT5-MEP50 Enzyme Methylation Assay (Version A); type: biochemical
T1 construct: Full-length (FL)-PRMT5-MEP50 enzyme complex (recombinant proteins from baculovirus-transfected Sf21 cells: FL-PRMT5; MW=73837 kDa and FL-MEP50; MW=38614); made in house; host or cells: baculovirus-transfected Sf21 cells
T1 sequence (O14744 whole entry): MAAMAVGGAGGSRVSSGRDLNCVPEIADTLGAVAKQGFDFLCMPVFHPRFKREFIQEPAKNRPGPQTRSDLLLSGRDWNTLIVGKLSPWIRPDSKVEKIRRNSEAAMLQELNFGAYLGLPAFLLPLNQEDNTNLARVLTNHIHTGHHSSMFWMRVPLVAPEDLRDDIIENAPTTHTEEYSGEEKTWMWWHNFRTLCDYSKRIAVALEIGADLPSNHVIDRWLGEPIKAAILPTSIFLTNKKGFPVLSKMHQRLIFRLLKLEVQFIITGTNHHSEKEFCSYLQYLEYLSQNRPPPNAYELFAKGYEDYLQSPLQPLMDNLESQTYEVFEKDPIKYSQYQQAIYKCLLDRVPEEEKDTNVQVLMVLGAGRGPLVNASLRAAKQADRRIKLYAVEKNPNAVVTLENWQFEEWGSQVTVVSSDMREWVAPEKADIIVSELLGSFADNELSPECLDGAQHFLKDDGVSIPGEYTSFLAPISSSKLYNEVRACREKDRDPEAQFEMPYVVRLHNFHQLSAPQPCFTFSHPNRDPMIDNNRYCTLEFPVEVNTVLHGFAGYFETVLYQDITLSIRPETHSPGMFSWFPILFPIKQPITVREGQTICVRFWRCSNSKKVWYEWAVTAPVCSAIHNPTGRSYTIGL
T1 sequence (Q9BQA1 whole entry partner): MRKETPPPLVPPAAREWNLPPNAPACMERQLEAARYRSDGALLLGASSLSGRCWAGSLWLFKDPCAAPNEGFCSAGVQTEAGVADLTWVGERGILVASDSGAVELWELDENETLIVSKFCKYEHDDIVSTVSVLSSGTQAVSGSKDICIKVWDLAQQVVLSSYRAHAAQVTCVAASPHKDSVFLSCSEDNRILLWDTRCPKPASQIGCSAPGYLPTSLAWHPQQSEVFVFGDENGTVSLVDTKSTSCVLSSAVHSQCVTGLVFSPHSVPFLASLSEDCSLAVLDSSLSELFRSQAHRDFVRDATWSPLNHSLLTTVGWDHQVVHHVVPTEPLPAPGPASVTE
Method in brief: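 Compound was pre-incubated with enzyme for 60 min, then reacted 150 min at 37° C. at final 1.0 nM PRMT5-MEP50, 15 μM SAM and 75 nM biotinylated H4R3(Me1) peptide, in 50 mM Bicine pH 8.0 with 1% DMSO. SAMDI mass-spectrometric readout of Me1→Me2 conversion. EC50 from 4- or 7-parameter regression.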

[2] = tested on: symmetric dimethylation of arginine (SDMA) of PRMT5 substrates in MCF-7 cells; experiment: PRMT5 Cell Target Engagement (TE) Assay; type: cell-based; conditions: Homo sapiens, MCF7, 72 h, 3 days treatment, SDMA high content imaging
Method in brief: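 MCF-7 cells treated 3 days at 37 °C with a ten-point 1:3 titration from 10000 nM. Fixed cells immunostained with anti-SDMA and Alexa488 secondary; nuclear fluorescence quantified by high-content imaging versus DMSO wells, with IC50 from a 4-parameter fit.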

[3] = second value of 7 parameter biphasic fit, read-out: Enzyme Methylation Assay Version A (EC50 2)
[4] = single EC50 = 4 parameter single site sigmoidal fit, EC50 1 = first value of 7 parameter biphasic fit, read-out: Enzyme Methylation Assay Version A (EC50 or EC50 1)

| SMILES | pEC50 [1, 3] | pEC50 [1, 4] | pEC50 [2] |
| --- | --- | --- | --- |
| Cc1c(C(=O)N2CC[C@]3(Cc4ccccc4CN3)[C@H](O)C2)nn2cc(Br)cnc12 [Example 62, (6-bromo-3-methylpyrazolo[1,5-a]pyrimidin-2-yl)[(3R,3′R)-3′-hydroxy-1,4-dihydro-1′H,2H-spiro[isoquinoline-3,4′-piperidin]-1′-yl]methanone] | 6.26 | 9.40 | 7.51 |
| Cc1nc2nc(C(=O)N3CC[C@]4(Cc5ccccc5CN4)[C@H](O)C3)cn2cc1C1CC1 [Example 63, (6-cyclopropyl-7-methylimidazo[1,2-a]pyrimidin-2-yl)[(3R,3′R)-3′-hydroxy-1,4-dihydro-1′H,2H-spiro[isoquinoline-3,4′-piperidin]-1′-yl]methanone] | 6.38 | 9.23 | 7.34 |
| Cc1c(C2CC2)cnc2nc(C(=O)N3CC[C@]4(Cc5ccccc5CN4)[C@H](O)C3)cn12 [Example 64, (6-cyclopropyl-5-methylimidazo[1,2-a]pyrimidin-2-yl)[(3R,3′R)-3′-hydroxy-1,4-dihydro-1′H,2H-spiro[isoquinoline-3,4′-piperidin]-1′-yl]methanone] | 5.01 | 7.72 | 6.12 |
| Cc1nc(Br)cn2cc(C(=O)N3CC[C@]4(Cc5ccccc5CN4)[C@H](O)C3)nc12 [Example 65, (6-bromo-8-methylimidazo[1,2-a]pyrazin-2-yl)[(3R,3′R)-3′-hydroxy-1,4-dihydro-1′H,2H-spiro[isoquinoline-3,4′-piperidin]-1′-yl]methanone] | 5.86 | 8.92 | 7.00 |
| Cc1cn2cc(C(=O)N3CC[C@]4(Cc5ccccc5CN4)[C@H](O)C3)nc2c(O)n1 [Example 66, 2-{[(3R,3′R)-3′-hydroxy-1,4-dihydro-1′H,2H-spiro[isoquinoline-3,4′-piperidin]-1′-y1]carbonyl}-6-methylimidazo[1,2-a]pyrazin-8(7H)-one] | 5.03 | 7.86 | 5.36 |
| COC(C)c1cc(C(F)(F)F)cn2cc(C(=O)N3CC[C@]4(Cc5ccccc5CN4)[C@H](O)C3)nc12 (stereo partly drawn) [Example 67, [(3R,3′R)-3′-hydroxy-1,4-dihydro-1′H,2H-spiro[isoquinoline-3,4′-piperidin]-1′-yl][8-(1-methoxyethyl)-6-(trifluoromethyl)imidazo[1,2-a]pyridin-2-yl]methanone] | 6.51 | 9.45 | 8.10 |
| N#CC1(c2cc(Br)cn3cc(C(=O)N4CC[C@]5(Cc6ccccc6CN5)[C@H](O)C4)nc23)CC1 [Example 68, 1-(6-bromo-2-{[(3R,3′R)-3′-hydroxy-1,4-dihydro-1′H,2H-spiro[isoquinoline-3,4′-piperidin]-1′-yl]carbonyl}imidazo[1,2-a]pyridin-8-yl)cyclopropanecarbonitrile] | 5.98 | 8.93 | 7.00 |
| CC(C#N)c1ccc2nc(C(=O)N3CC[C@]4(Cc5ccccc5CN4)[C@H](O)C3)cn2c1 (stereo partly drawn) [Example 69, 2-(2-{[(3R,3′R)-3′-hydroxy-1,4-dihydro-1′H,2H-spiro[isoquinoline-3,4′-piperidin]-1′-yl]carbonyl}imidazo[1,2-a]pyridin-6-yl)propanenitrile] | 7.36 | 9.39 | 7.90 |
| O=C(c1cc2ncc(C3CC3)cn2n1)N1CC[C@]2(Cc3ccccc3CN2)[C@H](O)C1 [Example 70, (6-cyclopropylpyrazolo[1,5-a]pyrimidin-2-yl)[(3R,3′R)-3′-hydroxy-1,4-dihydro-1′H,2H-spiro[isoquinoline-3,4′-piperidin]-1′-yl]methanone] | 6.62 | 9.57 | 6.58 |
| O=C(c1cn2ncc(Br)cc2n1)N1CC[C@]2(Cc3ccccc3CN2)[C@H](O)C1 [Example 71, (7-bromoimidazo[1,2-b]pyridazin-2-yl)[(3R,3′R)-3′-hydroxy-1,4-dihydro-1′H,2H-spiro[isoquinoline-3,4′-piperidin]-1′-yl]methanone] | 5.08 | 6.87 | 5.82 |
| Cc1nc(C(F)(F)F)cn2cc(C(=O)N3CC[C@]4(Cc5ccccc5CN4)[C@H](O)C3)nc12 [Example 72, [(3R,3′R)-3′-hydroxy-1,4-dihydro-1′H,2H-spiro[isoquinoline-3,4′-piperidin]-1′-yl][8-methyl-6-(trifluoromethyl)imidazo[1,2-a]pyrazin-2-yl]methanone] | 6.47 | 8.41 | 7.11 |
| O=C(c1cc2ncc(C(F)(F)F)cn2n1)N1CC[C@]2(Cc3ccccc3CN2)[C@H](O)C1 [Example 73, [(3R,3′R)-3′-hydroxy-1,4-dihydro-1′H,2H-spiro[isoquinoline-3,4′-piperidin]-1′-yl][6-(trifluoromethyl)pyrazolo[1,5-a]pyrimidin-2-yl]methanone] | 6.46 | 8.35 | 6.47 |
| Cn1nccc1-c1cnc2nc(C(=O)N3CC[C@]4(Cc5ccccc5CN4)[C@H](O)C3)cn2c1 [Example 78, [(3R,3′R)-3′-hydroxy-1,4-dihydro-1′H,2H-spiro[isoquinoline-3,4′-piperidin]-1′-yl][6-(1-methyl-1H-pyrazol-5-yl)imidazo[1,2-a]pyrimidin-2-yl]methanone] | 7.11 | 9.29 | 7.34 |
| Cc1nc(C)c(-c2cnc3nc(C(=O)N4CC[C@]5(Cc6ccccc6CN5)[C@H](O)C4)cn3c2)s1 [Example 79, [6-(2,4-dimethyl-1,3-thiazol-5-yl)imidazo[1,2-a]pyrimidin-2-yl][(3R,3′R)-3′-hydroxy-1,4-dihydro-1′H,2H-spiro[isoquinoline-3,4′-piperidin]-1′-yl]methanone] |  | 8.97 | 8.28 |
| COC(C)c1cc(C(C)C)cn2cc(C(=O)N3CC[C@]4(Cc5ccccc5CN4)[C@H](O)C3)nc12 (stereo partly drawn) [Example 84, A diastereomer of [(3R,3′R)-3′-hydroxy-1,4-dihydro-1′H,2H-spiro[isoquinoline-3,4′-piperidin]-1′-yl][6-isopropyl-8-(1-methoxyethyl)imidazo[1,2-a]pyridin-2-yl]methanone] | 6.54 | 9.33 | 7.96 |
| Cc1ccn2cc(C(=O)N3CC[C@]4(Cc5ccccc5CN4)[C@H](O)C3)nc2n1 [Example 111, [(3R,3′R)-3′-hydroxy-1,4-dihydro-1′H,2H-spiro[isoquinoline-3,4′-piperidin]-1′-yl](7-methylimidazo[1,2-a]pyrimidin-2-yl)methanone] | 4.45 | 7.38 | 5.57 |
| COCc1cc(Cl)cn2cc(C(=O)N3CC[C@]4(Cc5ccccc5CN4)[C@H](O)C3)nc12 [Example 112, (6-chloro-8-(methoxymethyl)imidazo[1,2-a]pyridin-2-yl)((3R,3′R)-3′-hydroxy-1,4-dihydro-2H-spiro[isoquinoline-3,4′-piperidin]-1′-yl)methanone] | 6.57 | 9.15 | 8.17 |
| COCc1cc(C)cn2cc(C(=O)N3CC[C@]4(Cc5ccccc5CN4)[C@H](O)C3)nc12 [Example 113, ((3R,3′R)-3′-hydroxy-1,4-dihydro-2H-spiro[isoquinoline-3,4′-piperidin]-1′-yl)(8-(methoxymethyl)-6-methylimidazo[1,2-a]pyridin-2-yl)methanone] | 6.47 | 9.17 | 7.76 |
| Cc1c(Br)cnc2nc(C(=O)N3CC[C@]4(Cc5ccccc5CN4)[C@H](O)C3)cn12 [Example 119, (6-bromo-5-methylimidazo[1,2-a]pyrimidin-2-yl)[(3R,3′R)-3′-hydroxy-1,4-dihydro-1′H,2H-spiro[isoquinoline-3,4′-piperidin]-1′-yl]methanone] | 5.19 | 7.93 | 6.56 |
| Cc1cnc2nc(C(=O)N3CC[C@]4(Cc5ccccc5CN4)[C@H](O)C3)cn2c1 [Example 120, [(3R,3′R)-3′-hydroxy-1,4-dihydro-1′H,2H-spiro[isoquinoline-3,4′-piperidin]-1′-yl](6-methylimidazo[1,2-a]pyrimidin-2-yl)methanone] | 6.45 | 9.30 | 7.54 |
| O=C(c1cn2cc(Br)c(C(F)(F)F)nc2n1)N1CC[C@]2(Cc3ccccc3CN2)[C@H](O)C1 [Example 121, [6-bromo-7-(trifluoromethyl)imidazo[1,2-a]pyrimidin-2-yl][(3R,3′R)-3′-hydroxy-1,4-dihydro-1′H,2H-spiro[isoquinoline-3,4′-piperidin]-1′-yl]methanone] | 5.48 | 8.31 | 7.18 |
| Cc1ccnc2nc(C(=O)N3CC[C@]4(Cc5ccccc5CN4)[C@H](O)C3)cn12 [Example 124, [(3R,3′R)-3′-hydroxy-1,4-dihydro-1′H,2H-spiro[isoquinoline-3,4′-piperidin]-1′-yl](5-methylimidazo[1,2-a]pyrimidin-2-yl)methanone] | 5.62 | 8.07 | 5.48 |
| COc1cc2nc(C(=O)N3CC[C@]4(Cc5ccccc5CN4)[C@H](O)C3)cn2cc1Br [Example 125] | 6.53 | 9.29 | 7.86 |
| Cc1cn2cc(C(=O)N3CC[C@]4(Cc5ccccc5CN4)[C@H](O)C3)nc2nc1C [Example 126, (6,7-dimethylimidazo[1,2-a]pyrimidin-2-yl)[(3R,3′R)-3′-hydroxy-1,4-dihydro-1′H,2H-spiro[isoquinoline-3,4′-piperidin]-1′-yl]methanone] | 5.30 | 8.15 | 6.40 |
